Experimental data: patent publication US8129402B2 (priority 2002, dated 2012)
“Also recorded” adds a separate entry of the source.

Legend:
[1] = tested on: [URE3] prion, NT34 and CC34 strains; format: cell-based, Saccharomyces cerevisiae
[2] = tested on: [URE3] prion (Ure2p), NT34 strain; format: cell-based, Saccharomyces cerevisiae; conditions: for red halo on NT34 lawn ([URE3] secondary screen): FIG. 6
[3] = tested on: [PSI+] prion (prion form of the protein Sup35p), STRg6 strain; format: cell-based, Saccharomyces cerevisiae; conditions: for relative anti-prion activity on a dish (FIG. 4): 10 μl of a 10 mM solution applied; for activity against the [PSI+] prion (FIG. 7, validation of the screen) / activity compared with another compound in the screen: medium contains 200 μM of guanidium chloride; for synergy of action with guanidium chloride: sub-effective guanidium chloride in medium (200 μM, 500 μM)
[4] = molecular target: PrP^sc in ScN2a-22L cells (Mus musculus, UniProt P04925); format: cell-based
[5] = tested on: [PSI+] prion, "strong" strain 74-D694; format: cell-based, Saccharomyces cerevisiae
mammal prion PrP = mammal prion PrP (Mus musculus, UniProt P04925); conditions: cited from earlier work
Chain of mammal prion PrP (P04925 23-230 limits assumed): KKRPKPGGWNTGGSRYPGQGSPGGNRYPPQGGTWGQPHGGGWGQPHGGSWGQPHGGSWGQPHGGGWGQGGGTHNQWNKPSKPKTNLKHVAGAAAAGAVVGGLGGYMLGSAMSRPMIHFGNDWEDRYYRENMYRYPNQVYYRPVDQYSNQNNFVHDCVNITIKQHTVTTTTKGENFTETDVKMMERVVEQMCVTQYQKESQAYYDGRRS

Chain of PrP^sc in ScN2a-22L cells (P04925 23-230 limits assumed): as above

Question: For Nc1nc2ccccc2c2ccccc12 [6-aminophenanthridine], which “colony colour of NT34 cells recovered around the filter, on fresh medium free of molecules” value [1] is on record?
Answer: red colonies

Question: What about the “curing of the [URE3] prion (ability to grow on USA medium)” value ([1]; CC34 strain, different doses, alone) of the same molecule?
Answer: capable of curing the [URE3] prion in a significant manner

Question: And the “curing of the [URE3] prion in combination with guanidium chloride” value ([1]; CC34 strain, with 200 μM of guanidium chloride)?
Answer: accentuated

Question: What about the “red halo on NT34 lawn ([URE3] secondary screen)” value [2] of the same molecule?
Answer: cause the appearance of a red halo

Question: And the “general statement of anti-prion activity in the screen” value [3]?
Answer: particularly active

Question: What about the “relative anti-prion activity on a dish (FIG. 4)” value (shortened to “relative anti-prion activity”) [3] of the same molecule?
Answer: still more active than the Kastellpaolitines and phenanthridine

Question: And the “elimination of the mammal prion in vitro (summary)” value [4]?
Answer: effective

Question: And the “effect on the elimination of PrPsc” value ([4]; at 2 and 4 μM)?
Answer: same effect

Question: And the “curing of the [PSI+] prion in liquid medium” value ([5]; 5 days liquid culture, compound alone, FIG. 5)?
Answer: capable of partially curing the [PSI+] prion from a significant number of cells

Question: What about the “curing effectiveness with added guanidium chloride in liquid medium” value ([5]; plus sub-effective dose (100 μM) of guanidium chloride) of the same molecule?
Answer: increased

Question: For Nc1nc2ccccc2c2ccc(Cl)cc12 [6A-8CP, 6-amino-8-chlorophenanthridine], which “relative anti-prion activity” value [3] is on record?
Answer: again increased the activity

Question: Which “relative anti-prion activity” value [3] does the source give for Nc1nc2ccccc2c2ccc(C(F)(F)F)cc12 [6A-8tFP, 6-amino-8-trifluoromethylphenanthridine] here?
Answer: one of the most active compounds

Question: What does the source list for CC(=O)c1ccc2c(c1)N(CCCN(C)C)c1ccccc1S2 [acepromazine]?
Answer: activity in the mammal system (Prof. Prusiner's test) (mammal prion PrP): slightly active; activity against the [PSI+] prion (FIG. 7, validation of the screen) [3]: weak activity

Question: What does the source list for NC(=O)N1c2ccccc2C=Cc2ccccc21 [carbamazepine]?
Answer: activity in the mammal system (Prof. Prusiner's test) (mammal prion PrP): inactive; activity against the [PSI+] prion (FIG. 7, validation of the screen) [3]: inactive

Question: Which results are given for CN(C)CC/C=C1/c2ccccc2Sc2ccc(Cl)cc21 [chloroprothixene]?
Answer: activity in the mammal system (Prof. Prusiner's test) (mammal prion PrP): inactive; activity against the [PSI+] prion (FIG. 7, validation of the screen) [3]: inactive

Question: For CN(C)CCCN1c2ccccc2Sc2ccc(Cl)cc21 [chlorpromazine], which “activity against the [PSI+] prion (FIG. 7, validation of the screen)” value (“activity against the [PSI+] prion” below) [3] is on record?
Answer: a certain activity

Question: What about the “activity compared with another compound in the screen” value [3] of the same molecule?
Answer: clearly weaker than that of 6-aminophenanthridine

Question: What about the “synergy of action with guanidium chloride” value [3] of the same molecule?
Answer: strong synergy of action

Question: With Cl.N=C(N)N [guanidium chloride] as the molecule, how does the “colony colour of NT34 cells recovered around the filter, on fresh medium free of molecules” value [1] read?
Answer: red colonies

Question: And the “colony colour of NT34 strain after treatment” value ([2]; 5 mM of guanidium chloride for approximately ten generations)?
Answer: red colonies

Question: What about the “curing of [PSI+] cells (red staining of the drop of cells)” value ([5]; 5 mM guanidium chloride, 0.2% DMSO, after 48 hours (approximately 12 generations)) of the same molecule?
Answer: complete curing

Question: Which “activity in the mammal system (Prof. Prusiner's test)” value (mammal prion PrP) does the source give for O=C(CCCN1CCC(O)(c2ccc(Cl)cc2)CC1)c1ccc(F)cc1 [haloperidol] here?
Answer: inactive

Question: What about the “activity against the [PSI+] prion” value [3] of the same molecule?
Answer: inactive

Question: With CN(C)CCCN1c2ccccc2CCc2ccccc21 [imipramine] as the molecule, how does the “activity in the mammal system (Prof. Prusiner's test)” value (mammal prion PrP) read?
Answer: inactive

Question: And the “activity against the [PSI+] prion” value [3]?
Answer: inactive

Question: Which results are given for CN(C)c1ccc2nc3ccc(=[N+](C)C)cc-3sc2c1 [methylene blue]?
Answer: activity in the mammal system (Prof. Prusiner's test) (mammal prion PrP): inactive; activity against the [PSI+] prion (FIG. 7, validation of the screen) [3]: inactive

Question: What does the source list for c1ccc2c(c1)cnc1ccccc12 [phenanthridine]?
Answer: colony colour of NT34 cells recovered around the filter, on fresh medium free of molecules [1]: red colonies; red halo on NT34 lawn ([URE3] secondary screen) [2]: cause the appearance of a red halo; general statement of anti-prion activity in the screen [3]: particularly active; anti-prion activity: red halo around the filter disc (size of the halo) ([3]; 15 μl of a 10 mM solution in DMSO, medium with 0.2 mM guanidium chloride, FIG. 3): positive signal; activity on a medium without guanidium chloride ([3]; medium without guanidium chloride): always active; synergy of action with guanidium chloride [3]: activity increases significantly as a function of the quantity of guanidium chloride

Question: With CCN(CC)CCCC(C)Nc1c2ccc(Cl)cc2nc2ccc(OC)cc12 (stereo not drawn) [quinacrine] as the molecule, how does the “activity against the [PSI+] prion” value [3] read?
Answer: a certain activity

Question: What about the “activity compared with another compound in the screen” value [3] of the same molecule?
Answer: clearly weaker than that of 6-aminophenanthridine; also recorded: activity greater than the latter

Question: For COc1ccc(CCN(C)CCCC(C#N)(c2ccc(OC)c(OC)c2)C(C)C)cc1OC (stereo not drawn) [verapamil], which “activity against the [PSI+] prion” value [3] is on record?
Answer: no curative effect could be detected
